Experimental data reported in US9708312B2, “Dihydropyrimidinoisoquinolinones and pharmaceutical compositions thereof for the treatment of inflammatory disorders (GPR84 antagonists)” (GALAPAGOS NV, priority 2012, dated 2017).

These compounds were tested against T1, GPR84 (Homo sapiens, UniProt Q9NQS5) (assay: GPR84 [35S]GTPγS binding assay, HEPES buffer). Details: 3,3′ di indolylmethane at EC80, membranes from stable cell line over expressing GPR84.
T1 construct: expressed in transfected cells
Assay type: biochemical
Method in brief: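 Membranes from a stable GPR84-overexpressing cell line (20 μg/well), pre-incubated with 0.1 μM GDP for 15 min at 4° C, mixed with 0.1 nM [35S]GTPγS and WGA SpA beads in 20 mM HEPES pH 7.4, 5 mM MgCl2, 250 mM NaCl, 0.05% BSA, 75 ug/mL saponin. Incubated 90 min at room temperature; scintillation proximity read after centrifugation.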

T1 sequence (Q9NQS5 whole entry): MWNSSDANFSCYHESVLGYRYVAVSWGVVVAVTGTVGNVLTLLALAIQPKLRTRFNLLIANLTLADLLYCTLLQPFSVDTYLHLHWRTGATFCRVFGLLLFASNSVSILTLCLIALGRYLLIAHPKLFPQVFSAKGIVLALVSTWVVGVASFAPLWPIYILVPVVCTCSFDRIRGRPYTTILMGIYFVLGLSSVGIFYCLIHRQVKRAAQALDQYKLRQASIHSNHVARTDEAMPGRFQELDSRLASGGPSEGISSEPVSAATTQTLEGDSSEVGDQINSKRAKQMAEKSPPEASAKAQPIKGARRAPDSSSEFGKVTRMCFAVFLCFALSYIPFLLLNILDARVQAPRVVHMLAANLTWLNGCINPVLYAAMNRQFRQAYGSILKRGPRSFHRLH

SMILES | IC50 [nM]
O=c1nc(OCC2CCCO2)cc2n1CCc1cc(OCc3ccc4ccccc4c3)ccc1-2 (centres unmarked) [compound 37, 9-(naphthalen-2-ylmethoxy)-2-(tetrahydro-furan-2-ylmethoxy)-6,7-dihydro-pyrimido[6,1-a]isoquinolin-4-one] | 0.01 to 100
CC(C)(Oc1ccc2c(c1)CCn1c-2cc(OCC2COc3ccccc3O2)nc1=O)C(=O)N1CCOCC1 (centres unmarked) [compound 50, 2-(2,3-dihydro-benzo[1,4]dioxin-2-ylmethoxy)-9-(1,1-dimethyl-2-morpholin-4-yl-2-oxo-ethoxy)-6,7-dihydro-pyrimido[6,1-a]isoquinolin-4-one] | 500 to 1000
CN1CCCC1CCOc1ccc2c(c1)CCn1c-2cc(OCC2COc3ccccc3O2)nc1=O (centres unmarked) [compound 83, 2-(2,3-dihydro-benzo[1,4]dioxin-2-ylmethoxy)-9-[2-(1-methyl-pyrrolidin-2-yl)-ethoxy]-6,7-dihydro-pyrimido[6,1-a]isoquinolin-4-one] | 100 to 500
COc1cccc(OCCOc2ccc3c(c2)CCn2c-3cc(OCC3CCCO3)nc2=O)c1 (centres unmarked) [compound 41, 9-[2-(3-methoxy-phenoxy)-ethoxy]-2-(tetrahydro-furan-2-ylmethoxy)-6,7-dihydro-pyrimido[6,1-a]isoquinolin-4-one] | 0.01 to 100
O=c1nc(OCC2CCCO2)cc2n1CCc1cc(OCCOc3ccccc3Cl)ccc1-2 (centres unmarked) [compound 43, 9-[2-(2-chloro-phenoxy)-ethoxy]-2-(tetrahydro-furan-2-ylmethoxy)-6,7-dihydro-pyrimido[6,1-a]isoquinolin-4-one] | 0.01 to 100
O=c1nc(OCC2CCCO2)cc2n1CCc1cc(OCc3cccc(Cl)c3)ccc1-2 (centres unmarked) [compound 22, 9-(3-chloro-benzyloxy)-2-(tetrahydro-furan-2-ylmethoxy)-6,7-dihydro-pyrimido[6,1-a]isoquinolin-4-one] | 0.01 to 100
O=c1nc(OCC2CCCO2)cc2n1CCc1cc(OCCOc3cccc(Cl)c3)ccc1-2 (centres unmarked) [compound 44, 9-[2-(3-chloro-phenoxy)-ethoxy]-2-(tetrahydro-furan-2-ylmethoxy)-6,7-dihydro-pyrimido[6,1-a]isoquinolin-4-one] | 0.01 to 100
O=c1nc(OCC2CCCO2)cc2n1CCc1cc(OCc3ccccc3)ccc1-2 (centres unmarked) [compound 7, 9-benzyloxy-2-(tetrahydro-furan-2-ylmethoxy)-6,7-dihydro-pyrimido[6,1-a]isoquinolin-4-one] | 0.01 to 100
CN(C)CCCOc1ccc2c(c1)CCn1c-2cc(OCC2COc3ccccc3O2)nc1=O (centres unmarked) [compound 82, 2-(2,3-Dihydro-benzo[1,4]dioxin-2-ylmethoxy)-9-(3-dimethylamino-propoxy)-6,7-dihydro-pyrimido[6,1-a]isoquinolin-4-one] | 500 to 1000
COc1cccc(-c2ccc3c(c2)CCn2c-3cc(OCC3CCCO3)nc2=O)c1 (centres unmarked) [compound 100, 9-(3-methoxy-phenyl)-2-(tetrahydro-furan-2-ylmethoxy)-6,7-dihydro-pyrimido[6,1-a]isoquinolin-4-one] | 100 to 500
O=C(COc1ccc2c(c1)CCn1c-2cc(OCC2CCCO2)nc1=O)Nc1ccccc1 (centres unmarked) [compound 63, 2-[4-oxo-2-(tetrahydro-furan-2-ylmethoxy)-6,7-dihydro-4H-pyrimido[6,1-a]isoquinolin-9-yloxy]-N-phenyl-acetamide] | 0.01 to 100
O=c1nc(OCC2COc3ccccc3O2)cc2n1CCc1cc(OCc3nnnn3C3CC3)ccc1-2 (centres unmarked) [compound 75, 9-(1-cyclopropyl-1H-tetrazol-5-ylmethoxy)-2-(2,3-dihydro-benzo[1,4]dioxin-2-ylmethoxy)-6,7-dihydro-pyrimido[6,1-a]isoquinolin-4-one] | 0.01 to 100
O=c1nc(OCC2COc3ccccc3O2)cc2n1CCc1cc(OCC3COc4ccccc4O3)ccc1-2 (centres unmarked) [compound 30, 2,9-bis-(2,3-dihydro-benzo[1,4]dioxin-2-ylmethoxy)-6,7-dihydro-pyrimido[6,1-a]isoquinolin-4-one] | 0.01 to 100
CCCn1nnnc1COc1ccc2c(c1)CCn1c-2cc(OCC2CCCO2)nc1=O (centres unmarked) [compound 64, 9-(1-propyl-1H-tetrazol-5-ylmethoxy)-2-(tetrahydro-furan-2-ylmethoxy)-6,7-dihydro-pyrimido[6,1-a]isoquinolin-4-one] | 100 to 500

The remaining lines, values ahead:

IC50 [nM] | SMILES
100 to 500 | C=CCOc1ccc2c(c1)CCn1c-2cc(OCC2COc3ncccc3O2)nc1=O (centres unmarked) [compound 77, 9-allyloxy-2-(2,3-dihydro-[1,4]dioxino[2,3-b]pyridin-2-ylmethoxy)-6,7-dihydro-pyrimido[6,1-a]isoquinolin-4-one]
100 to 500 | O=C1CN(CC#Cc2ccc3c(c2)CCn2c-3cc(OCC3COc4ncccc4O3)nc2=O)C(=O)N1 (centres unmarked) [compound 176, 1-{3-[2-(2,3-Dihydro-[1,4]dioxino[2,3-b]pyridin-2-ylmethoxy)-4-oxo-6,7-dihydro-4H-pyrimido[6,1-a]isoquinolin-9-yl]-prop-2-ynyl}-imidazolidine-2,4-dione]
100 to 500 | CC(C)(N)C#Cc1ccc2c(c1)CCn1c-2cc(OCC2COc3ncccc3O2)nc1=O (centres unmarked) [compound 178, 9-(3-amino-3-methyl-but-1-ynyl)-2-(2,3-dihydro-[1,4]dioxino[2,3-b]pyridin-2-ylmethoxy)-6,7-dihydro-pyrimido[6,1-a]isoquinolin-4-one]
0.01 to 100 | O=c1nc(OCC2COc3ncccc3O2)cc2n1CCc1cc(C3=CCOCC3)ccc1-2 (centres unmarked) [compound 161, 2-(2,3-dihydro-[1,4]dioxino[2,3-b]pyridin-2-ylmethoxy)-9-(3,6-dihydro-2H-pyran-4-yl)-6,7-dihydro-pyrimido[6,1-a]isoquinolin-4-one]
0.01 to 100 | O=c1nc(OCC2COc3ncccc3O2)cc2n1CCc1cc(CN3CCOCC3)ccc1-2 (centres unmarked) [compound 150, 2-(2,3-dihydro-[1,4]dioxino[2,3-b]pyridin-2-ylmethoxy)-9-morpholin-4-ylmethyl-6,7-dihydro-pyrimido[6,1-a]isoquinolin-4-one]
100 to 500 | CCNC1(C#Cc2ccc3c(c2)CCn2c-3cc(OCC3COc4ncccc4O3)nc2=O)COC1 (centres unmarked) [compound 201, 2-(2,3-dihydro-[1,4]dioxino[2,3-b]pyridin-2-ylmethoxy)-9-(3-ethylamino-oxetan-3-ylethynyl)-6,7-dihydro-pyrimido[6,1-a]isoquinolin-4-one]
0.01 to 100 | CC(C)c1nc(COc2ccc3c(c2)CCn2c-3cc(OCC3COc4ncccc4O3)nc2=O)no1 (centres unmarked) [compound 157, 2-(2,3-dihydro-[1,4]dioxino[2,3-b]pyridin-2-ylmethoxy)-9-(5-isopropyl-[1,2,4]oxadiazol-3-ylmethoxy)-6,7-dihydro-pyrimido[6,1-a]isoquinolin-4-one]
0.01 to 100 | CC(C)(C)c1nc(COc2ccc3c(c2)CCn2c-3cc(OCC3COc4ncccc4O3)nc2=O)no1 (centres unmarked) [compound 158, 9-(5-tert-Butyl-[1,2,4]oxadiazol-3-ylmethoxy)-2-(2,3-dihydro-[1,4]dioxino[2,3-b]pyridin-2-ylmethoxy)-6,7-dihydro-pyrimido[6,1-a]isoquinolin-4-one]
0.01 to 100 | COc1ncccc1-c1ccc2c(c1)CCn1c-2cc(OCC2COc3ncccc3O2)nc1=O (centres unmarked) [compound 145, 2-(2,3-dihydro-[1,4]dioxino[2,3-b]pyridin-2-ylmethoxy)-9-(2-methoxy-pyridin-3-yl)-6,7-dihydro-pyrimido[6,1-a]isoquinolin-4-one]
